Experimental data: US20230143604A1, “QW DOSING OF GIP RECEPTOR AGONIST PEPTIDE COMPOUNDS AND USES THEREOF” (TAKEDA PHARMACEUTICAL COMPANY LIMITED, priority 2020, published 2023)
Where two headings read alike, the source gives them in different places. Positions of bridges follow the written chain, without caps; N, C: chain ends. Non-standard residues stand in square brackets, D forms with d. Chains are numbered I, II in the order given. *: point of attachment. C18 diacid = O=C(O)CCCCCCCCCCCCCCCCC(=O)*; NMeY = CN[C@@H](Cc1ccc(O)cc1)C(=O)O; Aib = CC(C)(N)C(=O)O

Tests used:
human GIPR = target: T1, human GIPR (Homo sapiens, UniProt P48546); assay: Human GIPR agonist activity, intracellular cAMP accumulation; format: cell-based
T1 construct: HEK-293T cells overexpressing full-length human GIPR; FLAG (N); host or cells: HEK-293T
T1 sequence (P48546 22-466): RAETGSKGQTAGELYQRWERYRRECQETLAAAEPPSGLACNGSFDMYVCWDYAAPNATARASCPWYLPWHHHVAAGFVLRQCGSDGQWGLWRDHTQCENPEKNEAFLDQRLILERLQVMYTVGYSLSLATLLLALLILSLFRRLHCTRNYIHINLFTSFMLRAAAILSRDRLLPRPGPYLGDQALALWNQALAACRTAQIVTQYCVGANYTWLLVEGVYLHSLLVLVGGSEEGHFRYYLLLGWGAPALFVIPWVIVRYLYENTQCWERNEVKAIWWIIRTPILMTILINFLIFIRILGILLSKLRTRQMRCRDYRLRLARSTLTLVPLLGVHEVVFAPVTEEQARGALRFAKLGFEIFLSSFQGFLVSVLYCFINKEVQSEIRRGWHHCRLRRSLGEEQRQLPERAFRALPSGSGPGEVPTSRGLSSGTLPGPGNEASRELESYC
Method: Cells are cultured per the manufacturer's protocol in DMEM with 10% fetal bovine serum and 1 μg/mL puromycin and stored in frozen aliquots to be used as assay ready cells. On the day of the assay, cells are removed from frozen storage, washed two times in 1× Kreb's Ringer Buffer (Zenbio, Research Triangle Park, N.C.), and re-suspended to a concentration of 4×10^5 cells/mL in 1× Kreb's Ringer Buffer. […] Cells are incubated with test compound for 1 hr at room temperature in the dark, and cAMP accumulation is measured using the Cisbio HiRange cAMP assay kit (Bedford, Mass.) per the manufacturer's protocol. Anti-cAMP antibody and d2-cAMP tracer reagents diluted in lysis/detection buffer are incubated in the dark for 1 hr, and results are measured on an Envision plate reader (Perkin Elmer, Waltham, Mass.). Data is normalized using 1 nM GIP as 100% activity, and DMSO alone as 0% activity.

C57BL/6J mice = assay: Oral glucose tolerance test (OGTT); format: in vivo; details: 3 nmol/kg s.c., 24 hours before glucose loading
How it was run: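 Peptide or vehicle given s.c. at 0.1, 0.3, 3 or 10 nmol/kg (peptide-dependent), 24 h before oral 50% dextrose at 5 ml/kg unless stated otherwise. Blood glucose read at 0, 15, 30 and 60 min. % inhibition = (1−(AUC cpd−AUC naïve)/(AUC veh−AUC naïve))×100.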

[1] = Solubility in phosphate buffer pH 7.4
How it was run: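 Solubility at pH 7.4 determined by stepwise addition of 200 mM phosphate buffer in 100 μL increments to 3 mg peptide, mixing briefly each time, until no insoluble material remained, then measured by liquid chromatography.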

human GLP-1R = target: T2, human GLP-1R (Homo sapiens, UniProt P43220); assay: Human GLP1R agonist activity, intracellular cAMP accumulation; format: cell-based; details: HEK-293T cells overexpressing human GLP-1R, 1 hr
T2 construct: HEK-293T cells overexpressing full-length human GLP-1R; FLAG (N); host or cells: HEK-293T
T2 sequence (P43220 24-463): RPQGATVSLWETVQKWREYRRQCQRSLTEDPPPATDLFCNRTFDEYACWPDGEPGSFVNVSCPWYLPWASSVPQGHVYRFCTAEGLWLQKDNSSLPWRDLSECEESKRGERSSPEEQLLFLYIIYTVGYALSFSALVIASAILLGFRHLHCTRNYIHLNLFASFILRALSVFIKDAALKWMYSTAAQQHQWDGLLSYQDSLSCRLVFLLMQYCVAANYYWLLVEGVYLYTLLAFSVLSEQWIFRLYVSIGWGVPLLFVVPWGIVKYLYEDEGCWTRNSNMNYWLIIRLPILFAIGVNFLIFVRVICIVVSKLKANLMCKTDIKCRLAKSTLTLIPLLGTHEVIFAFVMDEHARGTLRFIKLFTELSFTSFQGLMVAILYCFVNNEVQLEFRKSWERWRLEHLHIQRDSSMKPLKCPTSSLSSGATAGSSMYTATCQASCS
How it was run: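 cAMP accumulation is measured by HTRF after a 1 hr, room-temperature, dark exposure of thawed cells (4×10^5 cells/mL in Krebs Ringer buffer) to compound. Activity is scaled between DMSO alone as 0% and 1 nm GLP-1 as 100%.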

[2] = Dog plasma protein binding (PPB); format: in vitro ADME; details: pH 7.4; fraction unbound; dog serum; read-out: Dog PPB (FUplasma)
How it was run: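 Fraction unbound (Fu,plasma) is given as a percentage. It was measured with the method and analysis of the human protein-binding protocol, but using dog serum in place of human serum.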

[3] = Human plasma protein binding (PPB); format: in vitro ADME; details: both sexes, pH 7.4; fraction unbound; human plasma, 1000 nmol/L peptide, ultracentrifugation; read-out: Human PPB (FUplasma)
How it was run: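 Peptides spiked at 1000 nmol/L into pooled human K2-EDTA plasma adjusted to pH 7.4, incubated 30 min at 37 °C, then ultracentrifuged at ~450,000 g, 4 °C for 3 h. Fu derived from LC-MS/MS (MRM) peak area ratios, supernatant versus plasma.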

[4] = pH 7.4, aqueous buffer, pH 7.4 Phosphate Buffer - Solubility, 200 mM Phosphate buffer pH 7.4
[5] = pH 7.4, solubility in phosphate buffer at pH 7.4, 200 mM phosphate buffer pH 7.4
[6] = Human GLP1R cAMP EC50, HEK293T (nM)
[7] = HEK-293T cells overexpressing human GIPR, cAMP accumulation, 1 hr, read-out: Human GIPR cAMP EC50, HEK293T
[8] = read-out: Human GLP1R cAMP EC50, HEK293T

Molecule | EC50 (human GIPR) [pM] | Oral Glucose Tolerance Test Percent decrease in blood glucose AUC (%) over 60 mins (C57BL/6J mice) | solubility [1, 4] [mg/mL] | solubility [1, 5] [mg/mL] | EC50 (human GLP-1R; [6]) [nM] | fraction unbound at 30 min, 1000 nmol/L [2] | fraction unbound at 30 min, 1000 nmol/L [3] | EC50 (human GIPR; [7]) [pM] | solubility ([1]; pH 7.4) [mg/mL] | solubility ([1]; pH 7.4, aqueous buffer) [mg/mL] | EC50 (human GLP-1R; [8]) [nM]
CC[C@H](C)[C@H](NC(=O)[C@H](CO)NC(=O)[C@H](Cc1ccc(O)cc1)NC(=O)[C@H](CC(=O)O)NC(=O)[C@H](CO)NC(=O)[C@@H](NC(=O)[C@H](Cc1ccccc1)NC(=O)[C@@H](NC(=O)CNC(=O)[C@H](CCC(=O)O)NC(=O)C(C)(C)NC(=O)[C@H](Cc1ccc(O)cc1)NC)[C@@H](C)O)[C@@H](C)CC)C(=O)N[C@@H](C)C(=O)N[C@@H](CCCCNC(=O)CNC(=O)CNC(=O)CNC(=O)CNC(=O)CNC(=O)CCCCCCCCCCCCCCCCC(=O)O)C(=O)N[C@@H](CC(=O)O)C(=O)N[C@@H](CCCNC(=N)N)C(=O)NC(C)(C)C(=O)N[C@@H](C)C(=O)N[C@@H](CCC(N)=O)C(=O)NC(C)(C)C(=O)N[C@@H](CC(=O)O)C(=O)N[C@@H](Cc1ccccc1)C(=O)N[C@H](C(=O)N[C@@H](CC(N)=O)C(=O)N[C@@H](Cc1c[nH]c2ccccc12)C(=O)N[C@@H](CC(C)C)C(=O)N[C@@H](CC(C)C)C(=O)N[C@@H](C)C(=O)N[C@@H](CCC(N)=O)C(=O)N[C@@H](CCCNC(=N)N)C(=O)N1CCC[C@H]1C(=O)N[C@@H](CO)C(=O)N[C@@H](CO)C(=O)NCC(=O)N[C@@H](C)C(=O)N1CCC[C@H]1C(=O)N1CCC[C@H]1C(=O)N1CCC[C@H]1C(=O)N[C@@H](CO)C(=O)O)C(C)C [Compound 43] | 1 | 97% (3 nmol/kg) | ≥ 30 | ≥ 15 | 61.7 |  |  |  |  |  | 
CC[C@H](C)[C@H](NC(=O)[C@H](CO)NC(=O)[C@H](Cc1ccc(O)cc1)NC(=O)[C@H](CC(=O)O)NC(=O)[C@H](CO)NC(=O)[C@@H](NC(=O)[C@H](Cc1ccccc1)NC(=O)[C@@H](NC(=O)CNC(=O)[C@H](CCC(=O)O)NC(=O)C(C)(C)NC(=O)[C@H](Cc1ccc(O)cc1)NC)[C@@H](C)O)[C@@H](C)CC)C(=O)N[C@@H](C)C(=O)N[C@@H](CCCCNC(=O)CNC(=O)CNC(=O)CNC(=O)CNC(=O)CNC(=O)CCCCCCCCCCCCCCCCC(=O)O)C(=O)N[C@@H](CC(=O)O)C(=O)N[C@@H](CCCNC(=N)N)C(=O)NC(C)(C)C(=O)N[C@@H](C)C(=O)N[C@@H](CCC(N)=O)C(=O)NC(C)(C)C(=O)N[C@@H](CC(N)=O)C(=O)N[C@@H](Cc1ccccc1)C(=O)N[C@H](C(=O)N[C@@H](CC(N)=O)C(=O)N[C@@H](Cc1c[nH]c2ccccc12)C(=O)N[C@@H](CC(C)C)C(=O)N[C@@H](CC(C)C)C(=O)N[C@@H](C)C(=O)N[C@@H](CCC(N)=O)C(=O)N[C@@H](CCCNC(=N)N)C(=O)N1CCC[C@H]1C(=O)N[C@@H](CO)C(=O)N[C@@H](CO)C(=O)NCC(=O)N[C@@H](C)C(=O)N1CCC[C@H]1C(=O)N1CCC[C@H]1C(=O)N1CCC[C@H]1C(=O)N[C@@H](CO)C(=O)O)C(C)C [Compound 44] | 1.7 | 119% (3 nmol/kg) | ≥ 30 | ≥ 15 | 10.7 | 0.0004 | 0.0007 |  |  |  | 
CC[C@H](C)[C@H](NC(=O)[C@H](Cc1ccccc1)NC(=O)[C@@H](NC(=O)CNC(=O)[C@H](CCC(=O)O)NC(=O)C(C)(C)NC(=O)[C@H](Cc1ccc(O)cc1)NC)[C@@H](C)O)C(=O)N[C@@H](CO)C(=O)N[C@@H](CC(=O)O)C(=O)N[C@@H](Cc1ccc(O)cc1)C(=O)N[C@@H](CO)C(=O)N[C@H](C(=O)NC(C)(C)C(=O)N[C@@H](CCCCNC(=O)CNC(=O)CNC(=O)CNC(=O)CNC(=O)CNC(=O)CCCCCCCCCCCCCCCCCCC(=O)O)C(=O)N[C@@H](CC(=O)O)C(=O)N[C@@H](CCCNC(=N)N)C(=O)NC(C)(C)C(=O)N[C@@H](C)C(=O)N[C@@H](CCC(N)=O)C(=O)NC(C)(C)C(=O)N[C@@H](CC(=O)O)C(=O)N[C@@H](Cc1ccccc1)C(=O)N[C@H](C(=O)N[C@@H](CC(N)=O)C(=O)N[C@@H](Cc1c[nH]c2ccccc12)C(=O)N[C@@H](CC(C)C)C(=O)N[C@@H](CC(C)C)C(=O)N[C@@H](C)C(=O)N[C@@H](CCC(N)=O)C(=O)N[C@@H](CCCNC(=N)N)C(=O)NCC(=O)O)C(C)C)[C@@H](C)CC [Compound 67] |  |  |  |  |  |  |  | 1.3 | ≥ 15 | ≥ 30 | 33.9
CC[C@H](C)[C@H](NC(=O)[C@H](CO)NC(=O)[C@H](Cc1ccc(O)cc1)NC(=O)[C@H](CC(=O)O)NC(=O)[C@H](CO)NC(=O)[C@@H](NC(=O)[C@H](Cc1ccccc1)NC(=O)[C@@H](NC(=O)CNC(=O)[C@H](CCC(=O)O)NC(=O)C(C)(C)NC(=O)[C@H](Cc1ccc(O)cc1)NC)[C@@H](C)O)[C@@H](C)CC)C(=O)N[C@@H](C)C(=O)N[C@@H](CCCCNC(=O)CNC(=O)CNC(=O)CNC(=O)CNC(=O)CNC(=O)CCCCCCCCCCCCCCCCC(=O)O)C(=O)N[C@@H](CC(=O)O)C(=O)N[C@@H](CCCNC(=N)N)C(=O)NC(C)(C)C(=O)N[C@@H](C)C(=O)N[C@@H](CCC(N)=O)C(=O)NC(C)(C)C(=O)N[C@@H](CC(=O)O)C(=O)N[C@@H](Cc1ccccc1)C(=O)N[C@H](C(=O)N[C@@H](CC(N)=O)C(=O)N[C@@H](Cc1c[nH]c2ccccc12)C(=O)N[C@@H](CC(C)C)C(=O)N[C@@H](CC(C)C)C(=O)N[C@@H](C)C(=O)N[C@@H](CCC(N)=O)C(=O)N[C@@H](CO)C(=O)N1CCC[C@H]1C(=O)N[C@@H](CO)C(=O)N[C@@H](CO)C(=O)NCC(=O)O)C(C)C [Compound 116] |  |  |  |  |  |  |  | 1 | ≥ 15 | ≥ 30 | 110
CC[C@H](C)[C@H](NC(=O)[C@H](Cc1ccccc1)NC(=O)[C@@H](NC(=O)CNC(=O)[C@H](CCC(=O)O)NC(=O)C(C)(C)NC(=O)[C@@H](N)Cc1ccc(O)cc1)[C@@H](C)O)C(=O)N[C@@H](CO)C(=O)N[C@@H](CC(=O)O)C(=O)N[C@@H](Cc1ccc(O)cc1)C(=O)N[C@@H](CO)C(=O)N[C@H](C(=O)NC(C)(C)C(=O)N[C@@H](CCCCNC(=O)CNC(=O)CNC(=O)CNC(=O)CNC(=O)CNC(=O)CCCCCCCCCCCCCCCCC(=O)O)C(=O)N[C@@H](CC(=O)O)C(=O)N[C@@H](CCCNC(=N)N)C(=O)NC(C)(C)C(=O)N[C@@H](C)C(=O)N[C@@H](CCC(N)=O)C(=O)NC(C)(C)C(=O)N[C@@H](CC(=O)O)C(=O)N[C@@H](Cc1ccccc1)C(=O)N[C@H](C(=O)N[C@@H](CC(N)=O)C(=O)N[C@@H](Cc1c[nH]c2ccccc12)C(=O)N[C@@H](CC(C)C)C(=O)N[C@@H](CC(C)C)C(=O)N[C@@H](C)C(=O)N[C@@H](CCC(N)=O)C(=O)N[C@@H](CCCNC(=N)N)C(=O)NCC(=O)O)C(C)C)[C@@H](C)CC [Compound 137] |  | 23% (3 nmol/kg) |  |  |  |  |  | 1.3 | ≥ 15 | ≥ 30 | 3.47
I: H-[NMeY][Aib]EGTFISDYSIALDR[Aib]AQ[Aib]KFVNWLLAQSPSSGAPPPS-OH / II: {C18 diacid}-PAPAPGG (amide I:21-II:C) [Compound 103] | 1.7 |  | ≥ 60 | ≥ 15 | 29.5 |  |  |  |  |  | 
